Test results taken from patent US20260109732A1, “LIPID AMINES” (ModernaTX, Inc., priority 2021, published 2026).
Counter-ions that a name gives are not always drawn.

Key:
HeLa cells [1] = experiment: CFTR Protein Expression Assay in HeLa Cells; format: cell-based, Human; details: LNPs encapsulating CFTR mRNA, N=4 wells; 5 h serum-free then 24 h; immunofluorescence vs PBS control
Summary of the method: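 Readout is fold-change in per-cell CFTR immunofluorescence intensity (488 nm, confocal imaging) relative to PBS-treated cells, from 4 replicate wells. LNPs encapsulating CFTR mRNA were applied serum-free for 5 h, followed by 24 h in complete medium before PFA fixation.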

[2] = Encapsulation of mRNA nanoparticles with lipid amines using Ribogreen assay; format: physicochemical
Summary of the method: (§1)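 DLS gave size and PDI, and Ribogreen gave encapsulation, for luciferase- or CFTR-mRNA nanoparticles (N:P 4.93). Particles came from IL1/DSPC/cholesterol/PEG-DMG-2K mixed at pH 4, mRNA-loaded, neutralized with TRIS pH 8.12, and then treated with lipid amine SA50 in pH 7.5 buffer.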

HeLa cells [3] = experiment: Luciferase Protein Expression Assay in HeLa Cells; format: cell-based, Human; details: LNPs encapsulating Luciferase mRNA, 25 ng per well, N=4 wells; 5 h serum-free then 24 h; ONE-Glo
Summary of the method: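 Luminescence output, average RLU across N=4 wells, was measured with ONE-Glo after cell lysis. Before that, HeLa cells were exposed to 25 ng/well luciferase-mRNA nanoparticles (PBS control) for 5 h serum-free, then cultured overnight (24 h) in complete MEM.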

[4] = Diameter and PDI from DLS measurements of mRNA nanoparticles with lipid amines; format: physicochemical
Summary of the method: as §1

[5] = CFTR mRNA nanoparticle with lipid amine
[6] = Luciferase mRNA nanoparticle modified with lipid amine

SMILES | Average fold-change in CFTR signal intensity per cell compared to buffer control ± standard deviation (HeLa cells [1]) | % Encapsulation (Ribogreen) [2, 5] | % Encapsulation (Ribogreen) [2, 6] | Average Relative Light Units ± Standard Deviation (HeLa cells [3]) | Diameter (nm) [4, 5] | PDI [4, 5] | Diameter (nm) [4, 6] | PDI [4, 6]
CC(C)CCC[C@@H](C)[C@H]1CC[C@H]2[C@@H]3CC=C4C[C@@H](SSCCC(=O)N(CCCCCCCC(C)(C)N)CCC(C)(C)N)CC[C@]4(C)[C@H]3CC[C@]12C.Cl.Cl [SA139, N-(3-amino-3-methylbutyl)-N-(8-amino-8-methylnonyl)-3-(((3S,8S,9S,10R,13R,14S,17R)-10,13-dimethyl-17-((R)-6-methylheptan-2-yl)-2,3,4,7,8,9,10,11,12,13,14,15,16,17-tetradecahydro-1H-cyclopenta[a]phenanthren-3-yl)disulfaneyl)propanamide dihydrochloride] | 13.3 ± 1.2 fold-change | 99.4% | 99.4% | 24497.9 ± 3998.9 Relative Light Units | 68.9 nm | 0.12 | 72 nm | 0.12
CC(C)CCC[C@@H](C)[C@H]1CC[C@H]2[C@@H]3CC=C4C[C@@H](OC(=O)CCCC(=O)N(CCCCCCCC(C)(C)N)CCC(C)(C)N)CC[C@]4(C)[C@H]3CC[C@]12C.Cl.Cl [SA141, (3S,8S,9S,10R,13R,14S,17R)-10,13-dimethyl-17-((R)-6-methylheptan-2-yl)-2,3,4,7,8,9,10,11,12,13,14,15,16,17-tetradecahydro-1H-cyclopenta[a]phenanthren-3-yl 5-((3-amino-3-methylbutyl)(8-amino-8-methylnonyl)amino)-5-oxopentanoate dihydrochloride] | 14.9 ± 0.6 fold-change | 98.9% | 98.9% | 35801.9 ± 8884.3 Relative Light Units | 70.8 nm | 0.12 | 73 nm | 0.15
CC(C)CCC[C@@H](C)[C@H]1CC[C@H]2[C@@H]3CC=C4C[C@@H](OC(=O)CCCC(=O)N(CCCCCCCC(C)N)CCC(C)N)CC[C@]4(C)[C@H]3CC[C@]12C (stereo partly drawn) [SA142, (3S,8S,9S,10R,13R,14S,17R)-10,13-dimethyl-17-((R)-6-methylheptan-2-yl)-2,3,4,7,8,9,10,11,12,13,14,15,16,17-tetradecahydro-1H-cyclopenta[a]phenanthren-3-yl 5-((3-aminobutyl)(8-aminononyl)amino)-5-oxopentanoate dihydrochloride] | 20.0 ± 1.0 fold-change | 99.0% | 99.5% | 44925.4 ± 6006.5 Relative Light Units | 69.5 nm | 0.14 | 72 nm | 0.19
CC[C@H](CC[C@@H](C)[C@H]1CC[C@H]2[C@@H]3CC=C4C[C@@H](OC(=O)N(CCCCCCCC(C)N)CCC(C)N)CC[C@]4(C)[C@H]3CC[C@]12C)C(C)C (stereo partly drawn) [SA144, (3S,8S,9S,10R,13R,14S,17R)-17-((2R,5R)-5-ethyl-6-methylheptan-2-yl)-10,13-dimethyl-2,3,4,7,8,9,10,11,12,13,14,15,16,17-tetradecahydro-1H-cyclopenta[a]phenanthren-3-yl (3-aminobutyl)(8-aminononyl)carbamate dihydrochloride] | 17.9 ± 2.1 fold-change | 98.8% | 99.2% | 33357.5 ± 5288.8 Relative Light Units | 69.3 nm | 0.12 | 71 nm | 0.15
CC(C)CCC[C@@H](C)[C@H]1CC[C@H]2[C@@H]3CC=C4C[C@@H](SSCCC(=O)N(CCCC(C)(C)N)CCC(C)(C)N)CC[C@]4(C)[C@H]3CC[C@]12C [SA145, N-(3-amino-3-methylbutyl)-N-(4-amino-4-methylpentyl)-3-(((3S,8S,9S,10R,13R,14S,17R)-10,13-dimethyl-17-((R)-6-methylheptan-2-yl)-2,3,4,7,8,9,10,11,12,13,14,15,16,17-tetradecahydro-1H-cyclopenta[a]phenanthren-3-yl)disulfaneyl)propanamide dihydrochloride] | 14.4 ± 0.6 fold-change | 99.8% | 99.7% | 36033.7 ± 4254.5 Relative Light Units | 71.8 nm | 0.14 | 77 nm | 0.17
CC[C@H](CC[C@@H](C)[C@H]1CC[C@H]2[C@@H]3CC=C4C[C@@H](OC(=O)N(CCCC(C)(C)N)CCC(C)(C)N)CC[C@]4(C)[C@H]3CC[C@]12C)C(C)C [SA149, (3S,8S,9S,10R,13R,14S,17R)-17-((2R,5R)-5-ethyl-6-methylheptan-2-yl)-10,13-dimethyl-2,3,4,7,8,9,10,11,12,13,14,15,16,17-tetradecahydro-1H-cyclopenta[a]phenanthren-3-yl (3-amino-3-methylbutyl)(4-amino-4-methylpentyl)carbamate dihydrochloride] | 15.8 ± 1.4 fold-change | 99.9% | 99.5% | 31035.2 ± 6333.7 Relative Light Units | 72.3 nm | 0.14 | 75 nm | 0.15
CC(C)CCC[C@@H](C)[C@H]1CC[C@H]2[C@@H]3CC=C4C[C@@H](OC(=O)N(CCCCCCCC(C)N)CCC(C)N)CC[C@]4(C)[C@H]3CC[C@]12C (stereo partly drawn) [SA151, (3S,8S,9S,10R,13R,14S,17R)-10,13-dimethyl-17-((R)-6-methylheptan-2-yl)-2,3,4,7,8,9,10,11,12,13,14,15,16,17-tetradecahydro-1H-cyclopenta[a]phenanthren-3-yl (3-aminobutyl)(8-aminononyl)carbamate dihydrochloride] | 20.2 ± 1.3 fold-change | 98.2% | 95.8% | 36345.5 ± 6730.7 Relative Light Units | 72.0 nm | 0.14 | 72 nm | 0.12
CC(C)CCC[C@@H](C)[C@H]1CC[C@H]2[C@@H]3CC=C4C[C@@H](OC(=O)N(CCCCCCCC(C)(C)N)CCC(C)(C)N)CC[C@]4(C)[C@H]3CC[C@]12C [SA152, (3S,8S,9S,10R,13R,14S,17R)-10,13-dimethyl-17-((R)-6-methylheptan-2-yl)-2,3,4,7,8,9,10,11,12,13,14,15,16,17-tetradecahydro-1H-cyclopenta[a]phenanthren-3-yl (3-amino-3-methylbutyl)(8-amino-8-methylnonyl)carbamate dihydrochloride] | 20.6 ± 1.6 fold-change | 98.4% | 98.2% | 41692.8 ± 9336.8 Relative Light Units | 71.6 nm | 0.14 | 78 nm | 0.15
CC[C@H](CC[C@@H](C)[C@H]1CC[C@H]2[C@@H]3CC=C4C[C@@H](OC(=O)N(CCCCCCCC(C)(C)N)CCC(C)(C)N)CC[C@]4(C)[C@H]3CC[C@]12C)C(C)C [SA153, (3S,8S,9S,10R,13R,14S,17R)-17-((2R,5R)-5-ethyl-6-methylheptan-2-yl)-10,13-dimethyl-2,3,4,7,8,9,10,11,12,13,14,15,16,17-tetradecahydro-1H-cyclopenta[a]phenanthren-3-yl (3-amino-3-methylbutyl)(8-amino-8-methylnonyl)carbamate dihydrochloride] | 17.5 ± 1.4 fold-change | 98.5% | 95.8% | 35859.3 ± 5894.9 Relative Light Units | 69.3 nm | 0.12 | 72 nm | 0.15
